Measured values from patent US4372975A, “Substituted 2-benzoyl-4-chloroglycinanilide derivatives, a process for their production, and their use as medicaments” (Pierre Fabre SA, priority 1977, dated 1983).
Counter-ions that a name gives are not always drawn. Like-named read-outs stand apart in the source and are kept apart here.

Columns and labels:
Solubility = assay type: physicochemical; settings: for solubility / solubility in water (in words): in water; for solubility in ethanol: in ethanol at 95° GL
[1] = Toxicity test (LD50, Miller and Tainter); settings: mouse, in vivo, mice
Protocol: The compounds according to the invention were subjected to toxicity tests. It was tested in batches of 10 mice by oral, intraperitoneal and, in some cases, intravenous administration and was calculated in accordance with Miller and Tainter's method (Proc. Soc. exper. Biol. Med., 1944, 57, 261).

[2] = system: pentamethylene tetrazole-induced tonic spasms; test: Anti-pentamethylene tetrazole activity; assay type: in vivo, male mice of the Swiss strain; settings: for ED50: Mus musculus; for Activity antipentetrazol (VO), at 10 mg: 10 mg (mg/kg)
Protocol: This test is carried out on a group of 10 male mice of the Swiss strain. 15 minutes after the subcutaneous injection of 125 mg/kg of pentamethylene tetrazole, the mice have tonic spasms of which the outcome is fatal.
For the test, the compound is administered orally 60 minutes before the injection of pentamethylene tetrazole. The animals are observed for 2 hours after administration of the pentamethylene tetrazole. In some particular cases, the tests were confirmed by intraperitoneal administration. The results are expressed by the effective dose DE50 (Goodman et Col.--J. Pharmacol. 108, 1953).
As Japanese Pat. No. 148,340 has been cited in copending application Ser. No. 916,651, filed June 19, 1978, comparisons between compounds of this closest prior art and the compounds of the invention were undertaken in the form of a controlled study.
The major consideration surrounded the similarity in the compounds, particularly in the substitution at the R position. The study compared ten compounds of the invention, which differed from the Japanese prior art only in that the compounds of the invention are alkylated at the R position while the prior art compounds are all hydrogenated at that position.
The compounds were tested for anti-pentamethylene tetrazole activity, the test described on p.

[3] = ip, intraperitoneal, read-out: DL50 I.P.
[4] = oral, 60 min before 125 mg/kg s.c. pentamethylene tetrazole, male Swiss mice, read-out: anti-pentamethylene tetrazole activity DE50 P.O.
[5] = po, prior art comparison, VO, dose giving 50% inhibition, read-out: Activity antipentetrazol (VO), 50% inhibition

Structure (SMILES)	solubility (Solubility) [mg/mL]	LD50 [1, 3] [mg/kg]	LD50 ([1]; oral, read-out: DL50 oral) [mg/kg]	ED50 [2, 4] [mg/kg]	also measured
CC(C)NCC(=O)N(C)c1ccc(Cl)cc1C(=O)c1ccccc1 [Example 1, N-Isopropyl-N'-methyl-(2-benzoyl-4-chloro)-glycinanilide hydrochloride]	10	–	–	–	–
CN(C(=O)CNCc1ccccc1)c1ccc(Cl)cc1C(=O)c1ccccc1 [Example 6, N-Methyl-N'-benzyl-(2-benzoyl-4-chloro)-glycinanilide hydrochloride]	25	–	–	–	–
CCN(CCO)CC(=O)N(C)c1ccc(Cl)cc1C(=O)c1ccccc1 [Example 15, N-Methyl-N'-ethyl-N'-(2'-hydroxyethyl)-(2-benzoyl-4-chloro)-glycinanilide]	–	150	550	2.9	solubility in dimethyl formamide (Solubility): 30%; solubility in ethanol (Solubility): 10%; solubility in water (in words) (Solubility): insoluble
CN(C(=O)CN1CCCCC1)c1ccc(Cl)cc1C(=O)c1ccccc1 [Example 17, N-Methyl-2-piperidino-(2'-benzoyl-4'-chloro)-acetanilide hydrochloride]	500	–	–	–	–
C#CC(C)(C)NCC(=O)N(C)c1ccc(Cl)cc1C(=O)c1ccccc1 [drawing 31]	–	–	–	–	ED50 [2, 5]: 2.3 mg/kg
CN1CCN(CC(=O)N(C)c2ccc(Cl)cc2C(=O)c2ccccc2)CC1 [Example 22, N-Methyl-4'-methyl-2-piperazino-(2-benzoyl-4-chloro)-acetanilide]	–	500	1000	–	solubility in dimethyl formamide (Solubility): 5%; solubility in ethanol (Solubility): 5%; solubility in water (in words) (Solubility): insoluble
CN(C(=O)CNCc1ccccc1)c1ccc(Cl)cc1C(=O)c1ccccc1 [drawing 35]	–	–	–	–	ED50 [2, 5]: 3 mg/kg
CC(C)N(CC(=O)N(C)c1ccc(Cl)cc1C(=O)c1ccccc1)C1CCCCC1 [Example 21, N-Methyl-N'-isopropyl-N'-cyclohexyl-(2-benzoyl-4-chloro)glycinanilide hydrochloride]	50	500	1000	2.2	–
CNCC(=O)Nc1ccc(Cl)cc1C(=O)c1ccccc1 [R = H, R1 = H, R2 = CH3, reference compound]	–	–	–	–	Activity antipentetrazol (VO), at 10 mg ([2]; prior art comparison, VO): inactive
CN(CCO)CC(=O)Nc1ccc(Cl)cc1C(=O)c1ccccc1 [R = H, R1 = CH3, R2 = CH2CH2 OH, reference compound]	–	–	–	–	Activity antipentetrazol (VO), at 10 mg ([2]; prior art comparison, VO): inactive
COCCNCC(=O)N(C)c1ccc(Cl)cc1C(=O)c1ccccc1 [Example 5, N-Methyl-N'-(2'-methoxyethyl)-(2-benzoyl-4-chloro)-glycinanilide hydrochloride]	500	300	750	2.6	–
CNC1=Nc2ccc(Cl)cc2C(c2ccccc2)=[N+]([O-])C1 [chlordiazepoxide, reference compound]	–	–	–	5	–
CNCC(=O)N(C)c1ccc(Cl)cc1C(=O)c1ccccc1 [Example 3, N,N'-Dimethyl-(2-benzoyl-4-chloro)-glycinanilide hydrochloride]	150	–	–	–	ED50 [2, 5]: 1.7 mg/kg
CN(C(=O)Cn1ccnc1)c1ccc(Cl)cc1C(=O)c1ccccc1 [Example 23, N-Methyl-2-imidazolyl-(2-benzoyl-4-chloro)-acetanilide]	–	500	1000	–	solubility in dimethyl formamide (Solubility): 20%; solubility in ethanol (Solubility): 10%; solubility in water (in words) (Solubility): insoluble
CC(CNCC(=O)N(C)c1ccc(Cl)cc1C(=O)c1ccccc1)c1ccccc1 (centres unmarked)	–	–	–	–	ED50 [2, 5]: 2.9 mg/kg
C#CC(CC)(CC)NCC(=O)N(C)c1ccc(Cl)cc1C(=O)c1ccccc1 [Example 8, N-Methyl-N'-(1',1'-diethyl-propargyl)-(2-benzoyl-4-chloro)-glycinanilide hydrochloride]	–	400	1000	4.1	solubility in dimethyl formamide (Solubility): 1%; solubility in ethanol (Solubility): 1%; solubility in water (in words) (Solubility): insoluble

Structure (SMILES)	solubility (Solubility) [mg/mL]	LD50 [1, 3] [mg/kg]	LD50 ([1]; oral, read-out: DL50 oral) [mg/kg]	ED50 [2, 4] [mg/kg]	also measured
CN(C(=O)CN(C)C1CCCCC1)c1ccc(Cl)cc1C(=O)c1ccccc1 [Example 20, N,N'-Dimethyl-N'-cyclohexyl-(2-benzoyl-4-chloro)-glycinanilide hydrochloride]	20	> 500	> 1000	1.9	–
CCC(CO)(CO)NCC(=O)N(C)c1ccc(Cl)cc1C(=O)c1ccccc1 [Example 13, N-Methyl-N'-(1'-ethyl-1'-hydroxymethyl-2'-hydroxyethyl)-(2-benzoyl-4-chloro)-glycinanilide hydrochloride]	500	–	–	–	–
C=CCNCC(=O)Nc1ccc(Cl)cc1C(=O)c1ccccc1 [R = H, R1 = H, R2 = CH2CHCH2, reference compound]	–	–	–	–	Activity antipentetrazol (VO), at 10 mg ([2]; prior art comparison, VO): inactive
O=C(CNCc1ccccc1)Nc1ccc(Cl)cc1C(=O)c1ccccc1 [reference compound]	–	–	–	–	Activity antipentetrazol (VO), at 10 mg ([2]; prior art comparison, VO): inactive
CC(CNCC(=O)Nc1ccc(Cl)cc1C(=O)c1ccccc1)c1ccccc1 (centres unmarked) [reference compound]	–	–	–	–	Activity antipentetrazol (VO), at 10 mg ([2]; prior art comparison, VO): inactive
CN1C(=O)CN=C(c2ccccc2)c2cc(Cl)ccc21 [diazepam, reference compound]	–	–	–	1	–
CN(C(=O)CN(CCO)CCO)c1ccc(Cl)cc1C(=O)c1ccccc1 [Example 16, N-Methyl-N',N'-bis-(2'-hydroxyethyl)-(2-benzoyl-4-chloro)-glycinanilide hydrochloride]	50	> 500	> 1000	3.4	–
C#CC(C)(C)NCC(=O)N(C)c1ccc(Cl)cc1C(=O)c1ccccc1 [Example 2, N-Methyl-N'-1,1-dimethyl-propargyl-(2-benzoyl-4-chloro)-glycinanilide hydrochloride]	10	450	> 1000	1.5	–
COCCNCC(=O)Nc1ccc(Cl)cc1C(=O)c1ccccc1 [R = H, R1 = H, R2 = CH2CH2OCH3, reference compound]	–	–	–	–	Activity antipentetrazol (VO), at 10 mg ([2]; prior art comparison, VO): inactive
C=CCNCC(=O)N(C)c1ccc(Cl)cc1C(=O)c1ccccc1 [Example 7, N-methyl-N'-allyl-(2-benzoyl-4-chloro)-glycinanilide hydrochloride]	30	500	> 1000	1.9	–
CN(C)CC(=O)N(C)c1ccc(Cl)cc1C(=O)c1ccccc1 [Example 4, N,N',N'-Trimethyl-(2-benzoyl-4-chloro)-glycinanilide]	–	–	–	–	solubility in dimethyl formamide (Solubility): 20%; solubility in ethanol (Solubility): 20%; solubility in water (in words) (Solubility): insoluble; ED50 [2, 5]: 1.7 mg/kg
C#CC(C)(C)NCC(=O)Nc1ccc(Cl)cc1C(=O)c1ccccc1 [reference compound]	–	–	–	–	Activity antipentetrazol (VO), at 10 mg ([2]; prior art comparison, VO): inactive
CN(C(=O)CNC1CC1)c1ccc(Cl)cc1C(=O)c1ccccc1 [Example 10, N-Methyl-N'-cyclopropyl-(2-benzoyl-4-chloro)-glycinanilide hydrochloride]	13	–	–	0.8	–
CN(C)CC(=O)Nc1ccc(Cl)cc1C(=O)c1ccccc1 [R = H, R1 = CH3, R2 = CH3, reference compound]	–	–	–	–	Activity antipentetrazol (VO), at 10 mg ([2]; prior art comparison, VO): inactive
CN(C(=O)CNC(C)(C)CO)c1ccc(Cl)cc1C(=O)c1ccccc1 [Example 12, N-Methyl-N'-(1',1'-dimethyl-2'-hydroxyethyl)-(2-benzoyl-4-chloro)-glycinanilide]	–	–	–	–	solubility in dimethyl formamide (Solubility): 25%; solubility in ethanol (Solubility): 10%; solubility in water (in words) (Solubility): insoluble
